Assay results published in ChEMBL document CHEMBL5042512 (Eur J Med Chem, 2022).
Calls of active or inactive are those of the source. The rule behind the calls is not given here.

Columns and labels:
[1] = test system: KYSE-30; assay: Down regulation of CDK1 protein expression in human KYSE-30 cells at 80 to 100 nM for 48 hrs by western blot analysis; type: functional, cell-based; conditions: dose 80-100 nM
[2] = test system: KYSE-450; assay: Induction of mitochondrial membrane potential loss in human KYSE-450 cells assessed as Bcl-xL expression at 80 to 100 nM measured after 48 hrs by western blot analysis; type: functional, cell-based; conditions: dose 80-100 nM
[3] = target: T1, Tubulin (Homo sapiens) (UniProt P68371+Q9H4B7+P0DPH7+P68366+Q13509+Q71U36+P04350+Q3ZCM7+P07437+P68363+Q9BQE3+Q6PEY2+Q13885+Q9BVA1+Q9BUF5); assay: Inhibition of tubulin polymerization in human KYSE-450 cells assessed as microtubule assembly at 0.1 uM measured after 48 hrs by immunofluorescence assay; type: cell-based
[4] = organism: Sus scrofa; assay: Inhibition of pig brain tubulin polymerization at 3 uM by spectrophotometry
[5] = test system: KYSE-450; assay: Induction of mitochondrial membrane potential loss in human KYSE-450 cells assessed as mitochondrial depolarization at 80 to 100 nM measured after 48 hrs by JCI staining based flow cytometry; type: functional, cell-based; conditions: dose 80-100 nM
[6] = test system: KYSE-450; assay: Induction of mitochondrial membrane potential loss in human KYSE-450 cells assessed as upregulation of NOXA protein at 80 to 100 nM measured after 48 hrs by western blot analysis; type: functional, cell-based; conditions: dose 80-100 nM
[7] = test system: KYSE-30; assay: Induction of cell cycle arrest in human KYSE-30 cells assessed as accumulation at G2/M phase at 100 nM measured after 48 hrs by flow cytometry analysis (reference value: 19.38 %); type: functional
[8] = target: T1, Tubulin (Homo sapiens); assay: Inhibition of tubulin polymerization in human KYSE-30 cells assessed as weakening of beta tubulin at 100 to 300 nM for 2 hrs by EBI alkylate competition assay; type: cell-based; conditions: dose 100-300 nM
[9] = test system: KYSE-450; assay: Induction of mitochondrial membrane potential loss in human KYSE-450 cells assessed as decrease in XIAP level at 80 to 100 nM measured after 48 hrs by western blot analysis; type: functional, cell-based; conditions: dose 80-100 nM
[10] = test system: KYSE-30; assay: Induction of mitochondrial membrane potential loss in human KYSE-30 cells assessed as upregulation of Bax protein at 80 to 100 nM measured after 48 hrs by western blot analysis; type: functional, cell-based; conditions: dose 80-100 nM
[11] = test system: KYSE-450; assay: Induction of apoptosis in human KYSE-450 cells assessed as apoptotic cells at 80 nM measured after 48 hrs by annexin-V-FITC and PI staining based flow cytometry analysis (reference value: 8.1667 %); type: functional
[12] = test system: KYSE-450; assay: Induction of mitochondrial membrane potential loss in human KYSE-450 cells assessed as upregulation of Bax protein at 80 to 100 nM measured after 48 hrs by western blot analysis; type: functional, cell-based; conditions: dose 80-100 nM

Structure (SMILES): COc1ccc(CN(C(=O)CSC(=S)N2CCN(C(=O)OC(C)(C)C)CC2)c2cc(OC)c(OC)c(OC)c2)cc1O
- Activity [1]: Dose-Dependent Effect
- Activity [2]: inactive
- inhibition [3]: Active
- inhibition [4]: Active
- Activity [5]: Active
- Activity [6]: Dose-Dependent Effect
- Activity [7]: 76.9767%
- inhibition [8]: Active
- Activity [9]: Dose-Dependent Effect
- Activity [10]: Dose-Dependent Effect
- Activity [11]: 34.0333%
- Activity [12]: Dose-Dependent Effect
